Laboratory results: patent US9918983B2, “Suicidal LSD1 inhibitors targeting SOX2-expressing cancer cells” (THE BOARD OF REGENTS OF THE NEVADA SYSTEM OF HIGHER …, priority 2013, dated 2018)

Columns and labels:
Sox2 = Sox2 protein level by western blotting in carcinoma cells; assay type: cell-based, human; parameters: dose or concentration left out as unconfirmed; settings: indicated carcinoma cells, 30 hr
Excerpt: Log-phase growing cancer cells were directly lysed in a buffer containing 0.5% SDS. Proteins in the lysates were equalized and analyzed by Western blotting using antibodies against Sox2, LSD1, H3K4Me1, H3K4Me2, Oct4, and other proteins as described previously or in the figure descriptions (Wang, J., et al. (2011) Cancer Research 71, 7238-7249). For immunohistochemical staining, rabbit monoclonal anti-LSD1 (clone C69G12, cat. #2184) and anti-Sox2 (clone D6D9, cat. #3579) antibodies were obtained from Cell Signaling. Rabbit anti-Sox2 polyclonal antibodies were raised using the purified GST-Sox2 fusion protein as the antigen.
Referring to FIG. 11A, inactivation of LSD1 by LSD1 inhibitors or siRNAs caused the downregulation of Sox2. The indicated carcinoma cells were treated with […] of the LSD1 inhibitors CBB1007 and CBB1003 for 30 hr or with 50 nM of Luc or LSD1 siRNAs for 60 hr. The protein levels of LSD1, Sox2, Lin28, CUL1, and histone H3 were analyzed by western blotting.

[1] = tested on: histone H3 and H4 methylation and acetylation; test: Histone modifications in F9 cells (Western blotting); assay type: cell-based, mouse
Experimental: To quantify and compare the protein band densities in the Western blots shown in the figures, a titration by serial dilution of the siRNA protein samples for mES cell lysates was used as a reference. The concentration of titration samples was measured by use of a NanoDrop 2000 apparatus, and the protein concentration of all titration samples was adjusted to 1 μg/μL. The protein samples were loaded onto an SDS-polyacrylamide gel at levels ranging from 1 μg to 13 μg at 2-μg intervals and immune blotted with each antibody, including anti-LSD1, anti-HDAC1, and anti-histone H3 antibodies, with three independent loadings. The Western blots were developed with exposure times ranging from 30 s to 1 min. The exposure density of each band was scanned by Adobe Photoshop Elements (version 4.0) software using a CanonScan 8600F scanner (Canon, Calif.) and was subsequently quantified by use of the area density tool of Gel-Pro Analyzer (version 4.0) software (Media Cybernetics, Inc.) and plotted. The regression analysis of each signal was performed by use of the Microsoft Excel program's Analysis Tool Pak regression option. […] The amount of the protein band in the Western blot shown in the figures was quantified by scanning, as described for the reference titration. […] The quantity of protein band densities between two protein samples was externally corrected by use of the reference plots. […] The statistical differences between the experimental and control groups were analyzed by one-way analysis of variance (ANOVA). […]
Referring to FIG. 28D, time course analyses of the effects of 50 μM LSD1 inhibitor CBB1007 on histone modifications in F9 cells are shown, but with a shorter time course than above. The mean density of each band was quantified by the use of Gel-Pro Analyzer (version 4.0) software, and error bars represent SEMs for duplicate samples. […] The statistical differences were analyzed by one-way ANOVA. *, P_0.05; **, P_0.01. […]

[2] = biological target: T1, recombinant LSD1 (GST-LSD1) (Homo sapiens, UniProt O60341); test: In vitro demethylation assay, recombinant LSD1, H3K4me2 peptide; assay type: biochemical; settings: dimethylated H3K4 peptide; 50 μM CBB1007 or 2 μM MS-275
T1 construct: Human LSD1 and HDAC1 full-length cDNAs were obtained from Open Biosystems; GST (N, cleaved yes); made in house; host or cells: Escherichia coli BL21
Excerpt: H3K4me2 and H4K16ac were purchased from AnaSpec and Shanghai Science Peptide Biological Technology Co., Ltd., respectively. Human LSD1 and HDAC1 full-length cDNAs were obtained from Open Biosystems. Human CoREST cDNA was amplified by reverse transcription-PCR (RT-PCR) using mRNA isolated from HeLa cells. These cDNAs were fully sequenced and cloned into the pGEX-KG or pET28a vector and expressed as the glutathione S-transferase (GST)- or His-tagged fusion proteins in the Escherichia coli BL21 strain and affinity purified with glutathione or Ni-Sepharose (GE Healthcare, United Kingdom) resin. […]
For a typical deacetylation assay, 1 μg rHDAC1 or 1 μg immunoprecipitated endogenous HDAC1-protein A complexes (from two 10-cm dishes) was incubated with 0.4 μg H4K16ac peptide in the presence or absence of 50 μM CBB1007 or 2 μM MS-275 at 30° C. for 1 h. The percentages of deacetylated products were analyzed by mass spectrometry, and the data were analyzed by GraphPad Prism (version 5) software. The reaction products were analyzed by mass spectrometry to separate the peptide substrate (H4K16ac) and the product (H4K16), as previously described (Wang, J., et al. (2011) Cancer Research 71, 7238-7249). […]

SMILES: COC(=O)c1cc(CN2CCN(C(=N)N)CC2)cc(C(=O)N2CCN(C(=O)c3ccc(C(=N)N)cc3)CC2)c1 [CBB1007]
- Sox2 protein level (Sox2): downregulation
- H3K4 methylation of oligonucleosomes from treated cells [1]: hypermethylated on H3K4
- time to increases of acetylation at H4K16 and H3K56 and mono- and dimethylation at H3K4 ([1]; 50 μM): ≤ 20 min
- demethylation activity of GST-LSD1 [2]: sensitive
